Data on 18 compounds can be found in patent publication US5674867A, “Indolocarbazole derivatives and therapeutic method for stimulating megakaicyocyte production” (Kyowa Hakko Kogyo Co., Ltd., priority 1992, dated 1997).

In data set [1] the test system is bone marrow cells (megakaryocyte colony formation). As to the kind of experiment: Megakaryocyte colony formation-stimulating activity (ACHE-stained colonies, bone marrow cells with IL-3). Type of data set: cell-based, BALB/c mouse. The note with it: with IL-3 100 U/ml, 7 days. Here is the method: An eight-weeks-old BALB/c mouse was killed. Its femurs and cervical vertebrae were taken out, and both end sections thereof were cut off. Bone marrow cells were collected from the pieces cut off from the femurs and cervical vertebrae using a syringe containing IMDM (430-2200EA prepared by Gibco Co.), and then blown into a test tube. The test tube was allowed to stand for 5 minutes, and the supernatant was collected with a pipet. To a reaction mixture comprising the bone marrow cells (50,000 cells), bovine serum albumin (2%: A4508 made by Sigma Co.), transferrin (600 μg/ml 652202 made by Boehringer Mannheim Co.), IL-3 (100 U/ml), cholesterol (16 μg/ml: 036-0641 made by Wako Co.) and agar (0.6%: 0142-02 made by Difco Laboratories) were separately added the test compounds at various concentrations, and 1 ml each of the mixtures was put into a 35-mm dish (Lux Co.), followed by incubation under the conditions of 37° C., 5% CO2 and a humidity of 95% or more for 7 days. Separately, IL-3 alone was added to the bone marrow cells to prepare a control, whereas a positive control was prepared by adding 200 U/ml IL-6 to the above-mentioned reaction mixture. After the incubation was completed, the agar was dried over a filter paper (1001-055 made by Whatman Co.) and then fixed with 2.5% glutaraldehyde, followed by acetylcholinesterase staining (ACHE staining).
The ACHE staining was carried out by the method described below.
ACHE staining: To each sample was added a solution comprising 0.67 mg/ml acetylthiocholine iodide, 2.94 mg/ml sodium citrate, 7.5 mg/ml copper (II) sulfate and 1.65 mg/ml potassium ferricyanide, and the mixture was allowed to stand at room temperature in the dark for 4-6 hours.
A group of 4 or more megakaryocytes which were stained reddish brown was regarded as a colony, and the number of colonies per dish was calculated using a microscope. The results are shown in Table 2 as relative values to the control.

A further data set is described as follows: Acute toxicity test. The following applies: mouse, in vivo, ip; male DDY mice, intraperitoneal, survival after 24 hours; read-out: LD50 (50% survival dose). Here is the method: To 6-weeks-old male DDY mice (3 per group) was intraperitoneally administered 0.2 ml of a solution of a test compound in a phosphate-buffered physiological saline. The 50% survival doses (LD50) were calculated from the survival rate after 24 hours. The LD50 for Compounds I-1, 17, 25, 26, 30-33, 35, 40 and 52 was >1 mg/kg, while that for all the other compounds was >30 mg/kg.

The subject of another data set is platelets. Briefly: Platelet production-stimulating activity in mice. Type of data set: in vivo, BALB/c mice. The following applies: 7.5 mg/kg/day × 5, caudal vein; for Number of platelets, individual mouse: 7.5 mg/kg/day. Here is the method: BALB/c mice (male, 7-weeks-old) were divided into 2 groups. To one group (control group) was administered a solvent (1% lactic acid, 4% aqueous solution of glucose) alone. On the other hand, the test group (Compound I-1-administered group) received 0.2 ml of a solution of Compound I-1 in the above solvent at a dose of 7.5 mg/kg via the caudal vein once a day for 5 days (Day 1-Day 5). On the day before the administration (Day 0) and the seventh day after the start of administration (Day 7), the ninth day (Day 9), the 14th day (Day 14) and the 21st day (Day 21), 20 μl of blood was collected from the fundus oculi vein of the mice of each group, and the number of the platelets was counted with a microcell counter (Type CC-180A made by Toa Iryo Denshi Co.).

Values joined by “and” are separate entries in the source; they are usually repeats but may differ in a detail not shown here. Identical values can stand only once.

Consider `COC1C(N(C)C)CC2OC1(C)n1c3ccccc3c3c4c(c5c6ccccc6n2c5c31)C(=O)NC4` (stereo not drawn) [Compound I-25], for which the “Relative value (megakaryocyte colonies, control = 100)” value stood at 119 in data set [1] (0.1 nM), 124 in data set [1] (1 nM) and 100 in data set [1] (10 nM). In addition, the LD50 at 24 h in the data set “Acute toxicity test” was more than 1 mg/kg.
For the compound `CNC1CC2OC(C)(C1OC)n1c3ccc(C(C)=O)cc3c3c4c(c5c6cc(C(C)=O)ccc6n2c5c31)C(=O)NC4` (stereo not drawn) [Compound I-31], the “Relative value (megakaryocyte colonies, control = 100)” value in data set [1] (0.1 nM) came to 76; in data set [1] (1 nM) it was 94; in data set [1] (10 nM), 109. Moreover, the LD50 at 24 h in “Acute toxicity test” was more than 1 mg/kg.
The corresponding values for `CCCOc1ccc2c(c1)c1c3c(c4c5ccccc5n5c4c1n2C1CC(NC)C(OC)C5(C)O1)CNC3=O` (stereo not drawn) [Compound I-33] are 101, 114, 105 and more than 1 mg/kg.
Regarding `CNC1CC2OC(C)(C1OC)n1c3ccccc3c3c4c(c5c6cc(O)ccc6n2c5c31)C(=O)NC4` (stereo not drawn) [Compound I-52], the LD50 at 24 h in the data set “Acute toxicity test” was more than 1 mg/kg.
Consider `COC(=O)C1(OC)CC2OC1(C)n1c3ccc(Br)cc3c3c4c(c5c6cc(Br)ccc6n2c5c31)C(=O)NC4` (stereo not drawn) [Compound I-40], for which the “Relative value (megakaryocyte colonies, control = 100)” value in data set [1] (0.1 nM) stood at 109; in data set [1] (1 nM), 125; in data set [1] (10 nM), 114. Further, in the data set “Acute toxicity test”, the LD50 at 24 h was more than 1 mg/kg.
On to `COC(=O)C1(O)CC2OC1(C)n1c3ccccc3c3c4c(c5c6ccccc6n2c5c31)C(=O)NC4` (stereo not drawn) [Compound I-35, K-252a], for which the “Relative value (megakaryocyte colonies, control = 100)” value in data set [1] (1.0 pM) stood at 130; in data set [1] (10 pM), 140. The LD50 at 24 h in the data set “Acute toxicity test” was more than 1 mg/kg.
As to `CCCN(C)C1CC2OC(C)(C1OC)n1c3ccccc3c3c4c(c5c6ccccc6n2c5c31)C(=O)NC4` (stereo not drawn) [Compound I-26], the “Relative value (megakaryocyte colonies, control = 100)” value was 108 in data set [1] (0.1 nM), 121 in data set [1] (1 nM) and 111 in data set [1] (10 nM). Moreover, in “Acute toxicity test”, the LD50 at 24 h was more than 1 mg/kg.
As to `CNC1CC2OC(C)(C1OC)n1c3ccccc3c3c4c(c5c6cc(C(C)=O)ccc6n2c5c31)C(=O)NC4` (stereo not drawn) [Compound I-30], the “Relative value (megakaryocyte colonies, control = 100)” value amounted to 111 in data set [1] (0.1 nM), 119 in data set [1] (1 nM) and 117 in data set [1] (10 nM). Further, the LD50 at 24 h in “Acute toxicity test” was more than 1 mg/kg.
With `CN[C@@H]1C[C@H]2O[C@@](C)([C@@H]1OC)n1c3ccccc3c3c4c(c5c6ccccc6n2c5c31)C(=O)NC4` [Compound I-17, staurosporine], the “Relative value (megakaryocyte colonies, control = 100)” value in data set [1] (1.0 pM) was 119; in data set [1] (10 pM), 107. Also, the LD50 at 24 h in “Acute toxicity test” was more than 1 mg/kg.
As to `CCCOc1ccc2c(c1)c1c3c(c4c5cc(OCCC)ccc5n5c4c1n2C1CC(O)(C(=O)OC)C5(C)O1)CNC3=O` (stereo not drawn) [Compound I-12], the “Relative value (megakaryocyte colonies, control = 100)” value in data set [1] (0.1 nM) is on record as 133; in data set [1] (1 nM), 113; in data set [1] (10 nM), 122.
In the case of `CNC1CC2OC(C)(C1OC)n1c3ccc(C=O)cc3c3c4c(c5c6cc(C=O)ccc6n2c5c31)C(=O)NC4` (stereo not drawn) [Compound I-32], the “Relative value (megakaryocyte colonies, control = 100)” value in data set [1] (0.1 nM) worked out at 76; in data set [1] (1 nM), 94; in data set [1] (10 nM) it was 109. For the same compound, in the data set “Acute toxicity test”, the 50% lethal dose (LD50) at 24 h is more than 1 mg/kg.
As to `CNC1CC2OC(C)(C1OC)n1c3ccccc3c3c4c(c5c6ccccc6n2c5c31)C(=O)N(C)C4=O` (stereo not drawn) [Compound I-9], the results for the “Relative value (megakaryocyte colonies, control = 100)” value in data set [1] (0.1 nM), in data set [1] (1 nM) and in data set [1] (10 nM) were 135, 117 and 92.2, respectively.
For the compound `CNC1CC2OC(C)(C1OC)n1c3ccccc3c3c4c(c5c6ccccc6n2c5c31)C(=O)NC4O` (stereo not drawn) [Compound I-1], the “Relative value (megakaryocyte colonies, control = 100)” value in data set [1] (1 nM) is 127. The “Number of platelets, individual mouse” value in the data set on platelets (Day 0 (day before administration)) is 92.6 × 10^4 /mm^3 and 90.5 × 10^4 /mm^3 and 94.2 × 10^4 /mm^3 and 117.6 × 10^4 /mm^3 and 111.7 × 10^4 /mm^3 and 95.5 × 10^4 /mm^3; with platelets (Day 7) it was 103.1 × 10^4 /mm^3 and 91.8 × 10^4 /mm^3 and 119.4 × 10^4 /mm^3 and 155.7 × 10^4 /mm^3 and 136.3 × 10^4 /mm^3 and 111.2 × 10^4 /mm^3; in the data set with platelets (Day 9), 125.3 × 10^4 /mm^3 and 160.0 × 10^4 /mm^3 and 144.5 × 10^4 /mm^3 and 136.1 × 10^4 /mm^3 and 146.8 × 10^4 /mm^3; in the data set with platelets (Day 14), 125.3 × 10^4 /mm^3 and 106.4 × 10^4 /mm^3 and 121.1 × 10^4 /mm^3 and 145.4 × 10^4 /mm^3 and 112.3 × 10^4 /mm^3 and 115.0 × 10^4 /mm^3; with platelets (Day 21) it was 133.9 × 10^4 /mm^3 and 202.7 × 10^4 /mm^3 and 153.0 × 10^4 /mm^3 and 139.6 × 10^4 /mm^3 and 135.5 × 10^4 /mm^3 and 163.9 × 10^4 /mm^3. Besides, the “Number of platelets (Average)” value in the data set with platelets (Day 0 (day before administration), control average 110.9) is 100.4 × 10^4 /mm^3; in the data set on platelets (Day 7, control average 133.4) it was 119.6 × 10^4 /mm^3; in the data set on platelets (Day 9, control average 114.5), 145.5 × 10^4 /mm^3; with platelets (Day 14, control average 109.1), 120.9 × 10^4 /mm^3; with platelets (Day 21, control average 114.3), 154.8 × 10^4 /mm^3. Further, the “% Relative value (number of platelets, Day 0 = 100)” value with platelets (Day 0, control 100) is 100%; with platelets (Day 7, control 120.3), 119.1%; in the data set with platelets (Day 9, control 103.2) it was 144.9%; with platelets (Day 14, control 98.4) it was 120.4%; with platelets (Day 21, control 103.1), 154.2%. In addition, the LD50 at 24 h in “Acute toxicity test” was more than 1 mg/kg.
`COC1C(N(C)C)CC2OC1(C)n1c3ccccc3c3c4c(c5c6ccccc6n2c5c31)C(=O)N(C)C4` (stereo not drawn) [Compound I-49]: the figures for the “Relative value (megakaryocyte colonies, control = 100)” value in data set [1] (0.1 nM) and in data set [1] (1 nM) were 122 and 128, respectively.
`CNC1CC2OC(C)(C1OC)n1c3ccccc3c3c4c(c5c6ccccc6n2c5c31)C(=O)N(Cc1ccccc1)C4` (stereo not drawn) [Compound I-21]: the “Relative value (megakaryocyte colonies, control = 100)” value was determined as 95 in data set [1] (0.1 nM), 105 in data set [1] (1 nM) and 97 in data set [1] (10 nM).
The corresponding values for `CCCOc1ccc2c(c1)c1c3c(c4c5ccccc5n5c4c1n2C1CC(OC)(C(=O)OC)C5(C)O1)CN(C)C3=O` (stereo not drawn) [Compound I-38] are 112, 111 and 136.
The corresponding values for `CC12OC(CC1O)n1c3ccccc3c3c4c(c5c6ccccc6n2c5c31)CNC4=O` (stereo not drawn) [Compound I-46] are 97, 131 and 112.
Turning to `COC(=O)C1(O)CC2OC1(C)n1c3ccccc3c3c4c(c5c6cc(S(=O)(=O)N7CCN(C)CC7)ccc6n2c5c31)C(=O)NC4` (stereo not drawn) [Compound I-11], the “Relative value (megakaryocyte colonies, control = 100)” value was 88.4 in data set [1] (0.1 nM), 95 in data set [1] (1 nM) and 116 in data set [1] (10 nM).

The term LD50 denotes the dose expected to kill half of the subjects tested.
